Data published in PubChem BioAssay AID1963867 (Molecular Pharmacology Branch, DTP, NCI, 2024).
Values joined by “and” are separate entries in the source; they are usually repeats but may differ in a detail not shown here. Identical values can stand only once.

Tested on: KRAS-mutant PDC tumor spheroid with HUVEC/MSC, viability
Experiment: Anticancer human tumor 327498-153-R-J2-PDC patient-derived uterine carcinosarcoma cell line growth inhibition [KRAS2]
Conditions: for viability, T/C: stronger effect = lower value
Procedure, shortened: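 KRAS-mutant tumor cells were grown as spheroids with HUVEC endothelial cells and human MSCs as stroma. Targeted agents were tested alone and with KRAS pathway inhibitors. Doses started at or near clinical Cmax, or 10 microM, descending half-log.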

[1] = curve of first compound, second compound 0.1 µM
[2] = curve of first compound, second compound 0.316 µM
[3] = curve of first compound, second compound 1 µM
[4] = curve of first compound, second compound 3.16 µM
[5] = second compound 0.1 µM, first compound 0.0316 µM
[6] = second compound 0.1 µM, first compound 0.1 µM
[7] = second compound 0.1 µM, first compound 0.316 µM
[8] = second compound 0.1 µM, first compound 1 µM
[9] = second compound 0.1 µM, first compound 3.16 µM
[10] = second compound 0.1 µM, first compound 10 µM
[11] = second compound 0.316 µM, first compound 0.0316 µM
[12] = second compound 0.316 µM, first compound 0.1 µM
[13] = second compound 0.316 µM, first compound 0.316 µM
[14] = second compound 0.316 µM, first compound 1 µM
[15] = second compound 0.316 µM, first compound 3.16 µM
[16] = second compound 0.316 µM, first compound 10 µM
[17] = second compound 1 µM, first compound 0.0316 µM
[18] = second compound 1 µM, first compound 0.1 µM
[19] = second compound 1 µM, first compound 0.316 µM
[20] = second compound 1 µM, first compound 1 µM
[21] = second compound 1 µM, first compound 3.16 µM
[22] = second compound 1 µM, first compound 10 µM
[23] = second compound 3.16 µM, first compound 0.0316 µM
[24] = second compound 3.16 µM, first compound 0.1 µM
[25] = second compound 3.16 µM, first compound 0.316 µM
[26] = second compound 3.16 µM, first compound 1 µM
[27] = second compound 3.16 µM, first compound 3.16 µM
[28] = second compound 3.16 µM, first compound 10 µM
[29] = curve of first compound, second compound 10 µM
[30] = second compound 10 µM, first compound 0.0316 µM
[31] = second compound 10 µM, first compound 0.1 µM
[32] = second compound 10 µM, first compound 0.316 µM
[33] = second compound 10 µM, first compound 1 µM
[34] = second compound 10 µM, first compound 3.16 µM
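Also: spheroids exposed to agents for seven days before reading.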
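For viability, T/C in this document: 100% = DMSO vehicle wells so lower means fewer viable cells.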

Compound | IC50 [1] [nM] | IC50 [2] [nM] | IC50 [3] [nM] | IC50 [4] [nM] | viability, T/C [5] [%] | viability, T/C [6] [%] | viability, T/C [7] [%] | viability, T/C [8] [%] | viability, T/C [9] [%] | viability, T/C [11] [%] | viability, T/C [12] [%] | viability, T/C [13] [%] | viability, T/C [14] [%] | viability, T/C [15] [%] | viability, T/C [17] [%] | viability, T/C [18] [%] | viability, T/C [19] [%] | viability, T/C [20] [%] | viability, T/C [21] [%] | viability, T/C [23] [%] | also measured
COc1cc(Nc2ncc3c(n2)-c2ccc(Cl)cc2C(c2c(F)cccc2OC)=NC3)ccc1C(=O)O + C=CC(=O)N1CCN(c2nc(OCC3CCCN3C)nc3c2CCN(c2cccc4cccc(C)c24)C3)CC1CC#N | < 31.6 | < 31.6 | < 31.6 | < 31.6 | 12.7 | 11.3 | 10.2 | 9.02 | 12.1 | 10.2 | 8.78 | 8.53 | 8.2 | 9.27 | 10.3 | 8.65 | 7.42 | 6.83 | 7.63 | 2.49 | IC50 (curve of first compound, second compound 0.0316 µM): < 31.6 nM; viability, T/C (second compound 0.0316 µM, first compound 0.0316 µM): 13.7%; viability, T/C (second compound 0.0316 µM, first compound 0.1 µM): 11.9%; viability, T/C (second compound 0.0316 µM, first compound 0.316 µM): 11.5%; viability, T/C (second compound 0.0316 µM, first compound 1 µM): 9.41%; viability, T/C (second compound 0.0316 µM, first compound 3.16 µM): 11.3%; viability, T/C (second compound 0.0316 µM, first compound 10 µM): 10.4%; viability, T/C [10]: 10.4%; viability, T/C [16]: 9.77%; viability, T/C [22]: 6.7%; viability, T/C [24]: 2.27%; viability, T/C [25]: 1.67%; viability, T/C [26]: 0.13%; viability, T/C [27]: 0.95%; viability, T/C [28]: 0.23%
COC(=O)c1ccc2c(C(=Nc3ccc(N(C)C(=O)CN4CCN(C)CC4)cc3)c3ccccc3)c(O)[nH]c2c1 + CC1OCC2(CCN(c3cnc(Sc4ccnc(N)c4Cl)c(N)n3)CC2)C1N | 561 | 157 | < 31.6 | < 31.6 | 76 | 68.8 | 58 | 43.8 | 26 | 57.1 | 50.7 | 44.7 | 34.5 | 16.2 | 40.4 | 41.9 | 33.3 | 20.6 | 14.5 | 36 | IC50 [29]: < 31.6 nM; viability, T/C [10]: 26.8%; viability, T/C [16]: 18.8%; viability, T/C [22]: 11.4%; viability, T/C [24]: 33.4%; viability, T/C [25]: 23.5%; viability, T/C [26]: 14.1%; viability, T/C [27]: 11%; viability, T/C [28]: 10.1%; viability, T/C [30]: 28%; viability, T/C [31]: 27.9%; viability, T/C [32]: 20.5%; viability, T/C [33]: 13.3%; viability, T/C [34]: 11.4%; viability, T/C (second compound 10 µM, first compound 10 µM): 9.36%
CC1OCC2(CCN(c3cnc(Sc4ccnc(N)c4Cl)c(N)n3)CC2)C1N (configuration not stated) |  |  |  |  |  |  |  |  |  |  |  |  |  |  |  |  |  |  |  |  | viability, T/C (compound 0.0316 µM): 87.3% and 88.9% and 86.3%; viability, T/C (compound 0.1 µM): 75.4% [middle of 19 runs]; viability, T/C (compound 0.316 µM): 59.2% [middle of 19 runs]; viability, T/C (compound 10 µM): 31.2% [middle of 19 runs]; IC50 (compound alone, run of 07/19/2021): 544 nM [middle of 5 runs]; IC50 (compound alone, run of 07/26/2021): 499 nM [middle of 6 runs]; IC50 (curve of compound): 1.05 µM [middle of 5 runs]
CC(=O)OC12COC1CC(O)C1(C)C(=O)C(O)C3=C(C)C(OC(=O)C(O)C(NC(=O)OC(C)(C)C)c4ccccc4)CC(O)(C(OC(=O)c4ccccc4)C21)C3(C)C (configuration not stated) + C=CC(=O)N1CCN(c2nc(=O)n(-c3c(C)ccnc3C(C)C)c3nc(-c4c(O)cccc4F)c(F)cc23)C(C)C1 | < 10 | < 10 | < 10 | < 10 | 6.6 | 5.43 | 6.55 | 9.48 | 11.1 | 6.11 | 5.72 | 7.34 | 8.77 | 13.1 | 5.71 | 10.5 | 8.73 | 8.75 | 10.7 | 7.63 | IC50 [29]: < 10 nM; viability, T/C (second compound 0.1 µM, first compound 0.01 µM): 8.43%; viability, T/C (second compound 0.316 µM, first compound 0.01 µM): 7.73%; viability, T/C (second compound 1 µM, first compound 0.01 µM): 9.81%; viability, T/C (second compound 3.16 µM, first compound 0.01 µM): 9.54%; viability, T/C [24]: 7.71%; viability, T/C [25]: 10.1%; viability, T/C [26]: 11.2%; viability, T/C [27]: 12.2%; viability, T/C (second compound 10 µM, first compound 0.01 µM): 11.1%; viability, T/C [30]: 9.72%; viability, T/C [31]: 12.5%; viability, T/C [32]: 13.3%; viability, T/C [33]: 12.3%; viability, T/C [34]: 12.8%
